Experimental data reported in the supplement of paper PMC10733146.

Columns and labels:
Experiment in all cases: viability relative to DMSO control (fraction); higher = less drug effect (more viable cells)
Conditions in all cases: 48 h
Tozasertib = compound: Cc1cc(Nc2cc(N3CCN(C)CC3)nc(Sc3ccc(NC(=O)C4CC4)cc3)n2)n[nH]1 [Tozasertib]
How it was run: (§1)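 Primary mononuclear tumour cells (Ficoll-isolated from blood or bone marrow, or processed lymph node; fresh or cryopreserved) were plated at 4 × 10^4 cells per well in 384-well plates with pre-plated compounds at five concentrations, one well each. Medium was RPMI-1640 with penicillin/streptomycin, L-glutamine and human serum, at 37 °C and 5% CO2 for 48 h. Viability was read as CellTiter-Glo luminescence relative to the median of 16 inner DMSO wells.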

Vincristine = compound: CC[C@]1(O)C[C@H]2CN(CCc3c([nH]c4ccccc34)[C@@](C(=O)OC)(c3cc4c(cc3OC)N(C=O)[C@H]3[C@@](O)(C(=O)OC)[C@H](OC(C)=O)[C@]5(CC)C=CCN6CC[C@]43[C@@H]65)C2)C1 [Vincristine]
How it was run: as §1

Nilotinib = compound: Cc1cn(-c2cc(NC(=O)c3ccc(C)c(Nc4nccc(-c5cccnc5)n4)c3)cc(C(F)(F)F)c2)cn1 [Nilotinib]
How it was run: as §1

Vorinostat = compound: O=C(CCCCCCC(=O)Nc1ccccc1)NO [Vorinostat]
How it was run: as §1

Birinapant = compound: CC[C@H](NC(=O)[C@H](C)NC)C(=O)N1C[C@@H](O)C[C@H]1Cc1c(-c2[nH]c3cc(F)ccc3c2C[C@@H]2C[C@H](O)CN2C(=O)[C@H](CC)NC(=O)[C@H](C)NC)[nH]c2cc(F)ccc12 [Birinapant]
How it was run: as §1

Ribociclib = compound: CN(C)C(=O)c1cc2cnc(Nc3ccc(N4CCNCC4)cn3)nc2n1C1CCCC1 [Ribociclib]
How it was run: as §1

MLN-120B = compound: COc1c(Cl)cc2c([nH]c3cnccc32)c1NC(=O)c1cccnc1C [MLN-120B]
How it was run: as §1

AZD7762 = compound: NC(=O)Nc1cc(-c2cccc(F)c2)sc1C(=O)N[C@H]1CCCNC1 [AZD7762]
How it was run: as §1

ERK5-IN-1 = compound: CCOc1cc(C(=O)N2CCC(N3CCN(C)CC3)CC2)ccc1Nc1ncc2c(n1)N(C1CCCC1)c1ccccc1C(=O)N2C [ERK5-IN-1]
How it was run: as §1

Carfilzomib = compound: CC(C)C[C@H](NC(=O)[C@H](CCc1ccccc1)NC(=O)CN1CCOCC1)C(=O)N[C@@H](Cc1ccccc1)C(=O)N[C@@H](CC(C)C)C(=O)[C@@]1(C)CO1 [Carfilzomib]
How it was run: as §1

Pacritinib = compound: C1=N/C2=N/c3ccc(OCCN4CCCC4)c(c3)COC/C=C/COCc3cccc(c3)C(=C1)N2 [Pacritinib]
How it was run: as §1

Obatoclax mesylate = compound: COC1=CC(c2cc3ccccc3[nH]2)=N/C1=C\c1[nH]c(C)cc1C [Obatoclax mesylate]
How it was run: as §1

[1] = compound: OCc1ccc(-c2ccc(-c3ccc(CO)s3)o2)s1
How it was run: as §1

Pralatrexate = compound: C#CCC(Cc1cnc2nc(N)nc(N)c2n1)c1ccc(C(=O)N[C@@H](CCC(=O)O)C(=O)O)cc1 [Pralatrexate]
How it was run: as §1

primary AML patient cells (S091) showed a viability (Tozasertib; 0.024 µM) of 0.914, a viability (Tozasertib; 0.12 µM) of 0.915 and a viability (Tozasertib; 0.6 µM) of 0.83. It also gave a viability (Tozasertib; 3 µM) of 0.872, a viability (Tozasertib; 15 µM) of 0.237 and a viability (Vincristine; 0.016 µM) of 1.24. For the same test system, the viability (Vincristine; 0.08 µM) was 1.03, the viability (Vincristine; 0.4 µM) was 0.882 and the viability (Vincristine; 2 µM) was 0.713. The viability (Vincristine; 10 µM) was 0.784, the viability (Nilotinib; 0.016 µM) was 1.05 and the viability (Nilotinib; 0.08 µM) was 1.07. It also gave a viability (Nilotinib; 0.4 µM) of 1.13, a viability (Nilotinib; 2 µM) of 0.991 and a viability (Nilotinib; 10 µM) of 1.06. For the same test system, the viability (Vorinostat; 0.016 µM) was 0.996, the viability (Vorinostat; 0.08 µM) was 0.821 and the viability (Vorinostat; 0.4 µM) was 0.525. The viability (Vorinostat; 2 µM) was 0.185, the viability (Vorinostat; 10 µM) was 0.147 and the viability (Birinapant; 0.0008 µM) was 1.28. It also gave a viability (Birinapant; 0.004 µM) of 0.603, a viability (Birinapant; 0.02 µM) of 0.331 and a viability (Birinapant; 0.1 µM) of 0.243. For the same test system, the viability (Birinapant; 0.5 µM) was 0.151, the viability (Ribociclib; 0.024 µM) was 0.846 and the viability (Ribociclib; 0.12 µM) was 0.916. The viability (Ribociclib; 0.6 µM) was 0.809, the viability (Ribociclib; 3 µM) was 0.765 and the viability (Ribociclib; 15 µM) was 0.699. It also gave a viability (MLN-120B; 0.024 µM) of 0.881, a viability (MLN-120B; 0.12 µM) of 0.865 and a viability (MLN-120B; 0.6 µM) of 0.902. The viability (MLN-120B; 3 µM) was 0.881, the viability (MLN-120B; 15 µM) was 0.798 and the viability (AZD7762; 0.024 µM) was 1.07. It also gave a viability (AZD7762; 0.12 µM) of 0.837, a viability (AZD7762; 0.6 µM) of 0.69 and a viability (AZD7762; 3 µM) of 0.464. It also gave a viability (AZD7762; 15 µM) of 0.348, a viability (ERK5-IN-1; 0.024 µM) of 0.879 and a viability (ERK5-IN-1; 0.12 µM) of 0.677. The viability (ERK5-IN-1; 0.6 µM) was 0.783, the viability (ERK5-IN-1; 3 µM) was 0.569 and the viability (ERK5-IN-1; 15 µM) was 0.268. The viability (Carfilzomib; 0.00016 µM) was 1.13, the viability (Carfilzomib; 0.0008 µM) was 0.629 and the viability (Carfilzomib; 0.004 µM) was 0.138. It also gave a viability (Carfilzomib; 0.02 µM) of 0.0738, a viability (Carfilzomib; 0.1 µM) of 0.0718 and a viability (Pacritinib; 0.024 µM) of 0.924. The viability (Pacritinib; 0.12 µM) was 0.891, the viability (Pacritinib; 0.6 µM) was 0.732 and the viability (Pacritinib; 3 µM) was 0.176. The viability (Pacritinib; 15 µM) was 0.0345, the viability (Obatoclax mesylate; 0.024 µM) was 1.12 and the viability (Obatoclax mesylate; 0.12 µM) was 1.1. The viability (Obatoclax mesylate; 0.6 µM) was 1.3, the viability (Obatoclax mesylate; 3 µM) was 0.371 and the viability (Obatoclax mesylate; 15 µM) was 0.0996. It also gave a viability ([1]; 0.024 µM) of 0.906, a viability ([1]; 0.12 µM) of 0.883 and a viability ([1]; 0.6 µM) of 0.759. It also gave a viability ([1]; 3 µM) of 0.593, a viability ([1]; 15 µM) of 0.413 and a viability (Pralatrexate; 0.024 µM) of 0.849. It also gave a viability (Pralatrexate; 0.12 µM) of 0.986, a viability (Pralatrexate; 0.6 µM) of 0.917 and a viability (Pralatrexate; 3 µM) of 0.798. For the same test system, the viability (Pralatrexate; 15 µM) was 0.899.
In the case of primary B-PLL patient cells (S016), the viability (Tozasertib; 0.024 µM) is reported as 0.856, the viability (Tozasertib; 0.12 µM) is reported as 0.74 and the viability (Tozasertib; 0.6 µM) is reported as 0.688. It also gave a viability (Tozasertib; 3 µM) of 0.619, a viability (Tozasertib; 15 µM) of 0.737 and a viability (Vincristine; 0.016 µM) of 0.225. It also gave a viability (Vincristine; 0.08 µM) of 0.209, a viability (Vincristine; 0.4 µM) of 0.161 and a viability (Vincristine; 2 µM) of 0.125. It also gave a viability (Vincristine; 10 µM) of 0.0588, a viability (Nilotinib; 0.016 µM) of 1.31 and a viability (Nilotinib; 0.08 µM) of 1.07. For the same test system, the viability (Nilotinib; 0.4 µM) was 1.11, the viability (Nilotinib; 2 µM) was 1.09 and the viability (Nilotinib; 10 µM) was 1.16. It also gave a viability (Vorinostat; 0.016 µM) of 0.995, a viability (Vorinostat; 0.08 µM) of 0.87 and a viability (Vorinostat; 0.4 µM) of 0.578. The viability (Vorinostat; 2 µM) was 0.169, the viability (Vorinostat; 10 µM) was 0.0399 and the viability (Birinapant; 0.0008 µM) was 0.974. For the same test system, the viability (Birinapant; 0.004 µM) was 0.97, the viability (Birinapant; 0.02 µM) was 0.973 and the viability (Birinapant; 0.1 µM) was 1.06. It also gave a viability (Birinapant; 0.5 µM) of 1.19, a viability (Ribociclib; 0.024 µM) of 1.01 and a viability (Ribociclib; 0.12 µM) of 1.03. The viability (Ribociclib; 0.6 µM) was 1.09, the viability (Ribociclib; 3 µM) was 1.05 and the viability (Ribociclib; 15 µM) was 0.84. For the same test system, the viability (MLN-120B; 0.024 µM) was 0.915, the viability (MLN-120B; 0.12 µM) was 0.98 and the viability (MLN-120B; 0.6 µM) was 0.926. It also gave a viability (MLN-120B; 3 µM) of 0.887, a viability (MLN-120B; 15 µM) of 0.716 and a viability (AZD7762; 0.024 µM) of 0.508. The viability (AZD7762; 0.12 µM) was 0.619, the viability (AZD7762; 0.6 µM) was 0.702 and the viability (AZD7762; 3 µM) was 0.758. It also gave a viability (AZD7762; 15 µM) of 0.358, a viability (ERK5-IN-1; 0.024 µM) of 1.03 and a viability (ERK5-IN-1; 0.12 µM) of 0.97. For the same test system, the viability (ERK5-IN-1; 0.6 µM) was 1.02, the viability (ERK5-IN-1; 3 µM) was 0.853 and the viability (ERK5-IN-1; 15 µM) was 0.548. For the same test system, the viability (Carfilzomib; 0.00016 µM) was 0.933, the viability (Carfilzomib; 0.0008 µM) was 0.381 and the viability (Carfilzomib; 0.004 µM) was 0.0322. For the same test system, the viability (Carfilzomib; 0.02 µM) was 0.0189, the viability (Carfilzomib; 0.1 µM) was 0.0238 and the viability (Pacritinib; 0.024 µM) was 0.979. It also gave a viability (Pacritinib; 0.12 µM) of 1.07, a viability (Pacritinib; 0.6 µM) of 0.884 and a viability (Pacritinib; 3 µM) of 0.692. It also gave a viability (Pacritinib; 15 µM) of 0.0511, a viability (Obatoclax mesylate; 0.024 µM) of 1 and a viability (Obatoclax mesylate; 0.12 µM) of 0.755. It also gave a viability (Obatoclax mesylate; 0.6 µM) of 0.467, a viability (Obatoclax mesylate; 3 µM) of 0.31 and a viability (Obatoclax mesylate; 15 µM) of 0.0716. The viability ([1]; 0.024 µM) was 0.989, the viability ([1]; 0.12 µM) was 1.07 and the viability ([1]; 0.6 µM) was 0.892. The viability ([1]; 3 µM) was 0.928, the viability ([1]; 15 µM) was 0.402 and the viability (Pralatrexate; 0.024 µM) was 0.982. The viability (Pralatrexate; 0.12 µM) was 0.945, the viability (Pralatrexate; 0.6 µM) was 0.979 and the viability (Pralatrexate; 3 µM) was 0.909. It also gave a viability (Pralatrexate; 15 µM) of 1.
